Laboratory results from ChEMBL document CHEMBL4020784, “Syntheses of prodrug-type phosphotriester oligonucleotides responsive to intracellular reducing environment for improvement of cell membrane permeability and nuclease resistance” (Bioorg Med Chem Lett, 2017).

Key:
[1] = Metabolic stability in 10% fetal bovine serum assessed as compound remaining at 37 degC by RP-HPLC method; format: ADME, cell-free, Bos taurus; details: cattle
[2] = Chemical stability in CD3CN up to 7 days by 31P NMR method; format: physicochemical; details: read-out: Stability

## Cc1cn([C@H]2C[C@H](OP(=O)(O)OC[C@H]3O[C@@H](n4cc(C)c(=O)[nH]c4=O)C[C@@H]3OP(=O)(O)OC[C@H]3O[C@@H](n4cc(C)c(=O)[nH]c4=O)C[C@@H]3OP(=O)(O)OC[C@H]3O[C@@H](n4cc(C)c(=O)[nH]c4=O)C[C@@H]3OP(=O)(O)OC[C@H]3O[C@@H](n4cc(C)c(=O)[nH]c4=O)C[C@@H]3OP(=O)(O)OC[C@H]3O[C@@H](n4cc(C)c(=O)[nH]c4=O)C[C@@H]3OP(=O)(O)OC[C@H]3O[C@@H](n4cc(C)c(=O)[nH]c4=O)C[C@@H]3OP(=O)(O)OC[C@H]3O[C@@H](n4cc(C)c(=O)[nH]c4=O)C[C@@H]3OP(=O)(O)OC[C@H]3O[C@@H](n4cc(C)c(=O)[nH]c4=O)C[C@@H]3OP(=O)(O)OC[C@H]3O[C@@H](n4cc(C)c(=O)[nH]c4=O)C[C@@H]3O)[C@@H](CO)O2)c(=O)[nH]c1=O
[1]
  half-life: < 1.5 h

## COc1ccc(C(OC[C@H]2O[C@@H](n3cc(C)c(=O)[nH]c3=O)C[C@@H]2OP(OC2CSSCC2OCc2ccccc2)N(C(C)C)C(C)C)(c2ccccc2)c2ccc(OC)cc2)cc1 (stereo partly drawn)
[2]
  remaining at 168 h: 95%

## Cc1cn([C@H]2C[C@H](OP(=O)(O)OC[C@H]3O[C@@H](n4cc(C)c(=O)[nH]c4=O)C[C@@H]3OP(=O)(O)OC[C@H]3O[C@@H](n4cc(C)c(=O)[nH]c4=O)C[C@@H]3OP(=O)(O)OC[C@H]3O[C@@H](n4cc(C)c(=O)[nH]c4=O)C[C@@H]3OP(=O)(O)OC[C@H]3O[C@@H](n4cc(C)c(=O)[nH]c4=O)C[C@@H]3OP(=O)(O)OC[C@H]3O[C@@H](n4cc(C)c(=O)[nH]c4=O)C[C@@H]3OP(=O)(O)OC[C@H]3O[C@@H](n4cc(C)c(=O)[nH]c4=O)C[C@@H]3OP(=O)(O)OC[C@H]3O[C@@H](n4cc(C)c(=O)[nH]c4=O)C[C@@H]3OP(=O)(O)OC[C@H]3O[C@@H](n4cc(C)c(=O)[nH]c4=O)C[C@@H]3OP(=O)(OC[C@H]3O[C@@H](n4cc(C)c(=O)[nH]c4=O)C[C@@H]3O)O[C@@H]3CSSC[C@H]3OCc3ccccc3)[C@@H](CO)O2)c(=O)[nH]c1=O (stereo partly drawn)
[1]
  half-life: > 23.3 h
